# Legend:
# [1] = test system: antibody-secreting plaque-forming splenocytes (IgG and IgM); assay: Cunningham modification of the Jerne assay (hemolytic plaque technique), IgM and IgG plaques per spleen; format: in vivo, CDF1 (Balb/c × DBA/2) mice; conditions: Table 2, 200 mg/kg
# Experimental: In this example, the compounds of the invention are tested for their effect on antibody-secreting plaque-forming splenocytes (IgG and IgM) in the Cunningham modification of the Jerne assay. This technique is able to detect, in a quantitative manner, antibody producing cells in response to antigen stimulus in the host mouse. For study of […] immune response, sheep erythrocytes (SRBC) are used (as in the present Example), while for humoral immune response, SRBC coupled with pneumococcal polysaccharide is used.
# CDF1 (Balb/c × DBA/2) mice are immunized with 0.1 ml. of 10^8 sheep erythrocytes (SRBC) intraperitonially 4-5 days before the assay. The mice are separated into groups, with one group serving as a control and all other groups receiving compounds of the invention. The treated mice are dosed with drug on day one. […] The spleens of the sacrificed mice are excised and washed several times in RPMI 1640 with 10% fetal bovine serum. 100 λ of spleen cells are mixed with a drop of guinea pig complement, four drops of RPMI 1640 and a drop of 25% SRBC in a microtiter plate well and then pipetted into a Cunningham chamber. On day four, for IgM determinations, the chambers are incubated for 30 minutes at 37° C. Antibody, released by the small proportion of active cells, attaches to the surrounding erythrocytes which are lysed by complement leaving a small plaque up to 0.5 mm. in diameter. Since only cells releasing IgM antibody form plaques directly, a "developing" serum must be added to be able to form and view IgG plaques. Thus fifth or sixth day cultured spleen cells are further treated with rabbit antimouse IgG and then incubated for 45 minutes. Both IgM and IgG plaques are counted under a stereomicroscope.
# In Table 1 are given the IgM and IgG plaque counts per spleen for mice treated with 6-chloro-2-phenylthiazolo[2,3-b]benzothiazol-3(2H)-one mesoionic didehydro derivative and for the controls:
# The assay is repeated using the following compounds of the invention: 2-phenylthiazolo[2,3-b]benzothiazol-3(2H)-one mesoionic didehydro derivative (A), 6-chloro-2-(p-chlorophenyl)-thiazolo[2,3-b]benzothiazol-3(2H)-one mesoionic didehydro derivative (B) and 6-chloro-2-phenylthiazolo[2,3-b]benzothiazol-3(2H)-one mesoionic didehydro derivative (C).
# hemolytic anemia = assay: autoimmune hemolytic anemia model, serum immunoglobulins; format: in vivo, NZB mice; set-up: IgM, Baseline: unit not given beside the values; conditions: for ANA (antinuclear antibody), 1st Reading / IgG, 1st Reading / IgM, 1st Reading: 1st Reading (156 Days); for ANA (antinuclear antibody), 1st Reading / IgG, 1st Reading / IgM, 1st Reading / IgG, % Change / IgM, % Change: 200 mg/kg, four doses over two weeks; for IgG, % Change / IgM, % Change: 142 to 156 Days
# Source text: NZB/W F1 mice are divided into two groups according to sex. At the initiation of drug treatment, female mice are 78.2 days old with an average weight of 30 g., while male mice are 69.5 days old with an average weight of 40 g. IgG, IgM and antinuclear antibody determinations are made on pooled samples of serum obtained by capillary bleedings of the suborbital sinus at approximately monthly intervals. The compounds of the invention are suspended in a solution of physiological saline with 0.16% CMC. All dosing is twice weekly intraperitonially.
# Another autoimmune disease model, hemolytic anemia, is used to further evaluate the compounds of the invention. Thus, NZB mice, having an average age of 142 days and with well advanced hemolytic anemia, are divided into treatment groups and are dosed biweekly over a period of two weeks (four doses total) with the following compounds in the same manner as previously described: 6-chloro-2-(p-chlorophenyl)thiazolo[2,3-b]benzothiazol-3(2H)-one mesoionic didehydro derivative (A), 2-phenyl-5,6,7,8-tetrahydrothiazolo[2,3-b]benzothiazol-3(2H)-one mesoionic didehydro derivative (B), 2-phenylthiazolo[2,3-b]benzothiazol-3(2H)-one mesoionic didehydro derivative (C) and 6-chloro-2-trifluoroacetylthiazolo[2,3-b]benzothiazol-3(2H)-one mesoionic didehydro derivative (D). The immunoglobulin values from serum samples are compared with the baseline (pretreatment) for each group and the results are summarized in Table 10: […]
# thymus gland = assay: effect on the thymus gland (thymus weight); format: in vivo, BDF1 mice; conditions: Table 4
# Experimental: The effect of the compounds of the invention on the thymus gland is measured. BDF1 mice of 18-20 gms. weight are dosed at 150 mg/kg. with 6-chloro-2-phenylthiazolo[2,3-b]benzothiazolo-3(2H)-one mesoionic didehydro derivative for eight consecutive days. The mice are sacrificed on the ninth day, the thymus glands excised and weighed. The excised thymus glands averaged […]. as compared to […]. for the control group. […] The weight loss is also correlated to dose, and the results are as follows:
# Using the same technique, the following compounds of the invention were tested: 6-chloro-2-(p-chlorophenyl)thiazolo[2,3-b]benzothiazol-3(2H)-one mesoionic didehydro derivative (A), 2-phenyl-5,6,7,8-tetrahydrothiazolo[2,3-b]benzothiazol-3(2H)-one mesoionic didehydro derivative (B), 2-phenylthiazolo[2,3-b]-benzothiazol-3(2H)-one mesoionic didehydro derivative (C),6-chloro-2-trifluoroacetylthiazolo[2,3-b]benzothiazol-3(2H)-one mesoionic didehydro derivative (D), 6-chloro-3-hydroxy-2-phenylthiazolo[2,3-b]benzothiazolium bromide (E), 7-ethoxy-3-hydroxy-2-phenylthiazolo[2,3-b]benzothiazolium bromide (F), 3-hydroxy-2-phenylthiazolo[2,3-b]benzothiazolium bromide (G), and 3-hydroxy-2-phenyl-5,6,7,8-tetrahydrothiazolo[2,3-b]benzothiazolium bromide (H).
# [2] = test system: delayed hypersensitivity reaction; assay: guinea pig delayed hypersensitivity assay (PPD); format: in vivo, Male Hartley strain guinea pigs; conditions: 50 mg/kg orally, read 24 hours after challenge, * = p < 0.05
# [3] = test system: autoimmune disease (systemic lupus erythematosus); assay: autoimmune disease (systemic lupus erythematosus), immunoglobulin determinations, male NZB/W mice; format: in vivo, male NZB/W F1 mice; conditions: A 100 mg/kg, levamisole 25 mg/kg, i.p. twice weekly
# Experimental: (§1) The effect of the compounds of the invention on the development and progress of autoimmune disease (systemic lupus erythematosus) in the New Zealand F1 hydrid mouse (NZB×NZW) is evaluated. NZB/W F1 mice are divided into two groups according to sex. […] IgG, IgM and antinuclear antibody determinations are made on pooled samples of serum obtained by capillary bleedings of the suborbital sinus at approximately monthly intervals. The compounds of the invention are suspended in a solution of physiological saline with 0.16% CMC. All dosing is twice weekly intraperitonially. […] Immunoglobulin values from serum samples are compared with the baseline (pretreatment) for each group.
# [4] = test system: autoimmune disease (systemic lupus erythematosus); assay: autoimmune disease (systemic lupus erythematosus), immunoglobulin determinations, female NZB/W mice; format: in vivo, female NZB/W F1 mice; conditions: A 100 mg/kg, levamisole 25 mg/kg, i.p. twice weekly
# Experimental: as §1
# [5] = Baseline (142 Days), 200 mg/kg group
smiles,measurement,setting,value
[O-]c1c(-c2ccccc2)sc2sc3ccccc3[n+]12 [A],"IgG, mean (total number of plaques per spleen)",[1]; Day 4,"107,100 plaques per spleen"
same,"IgM, mean (total number of plaques per spleen)",[1]; Day 4,"163,800 plaques per spleen"
same,"IgG, mean (total number of plaques per spleen)",[1]; Day 5,"184,590 plaques per spleen"
same,"IgM, mean (total number of plaques per spleen)",[1]; Day 5,"97,020 plaques per spleen"
same,"ANA (antinuclear antibody), 1st Reading",hemolytic anemia,neg.
same,"IgG, 1st Reading",hemolytic anemia,570
same,"IgM, 1st Reading",hemolytic anemia,176
same,"IgG, % Change",hemolytic anemia,-15%
same,"IgM, % Change",hemolytic anemia,+21%
same,"ANA (antinuclear antibody), Baseline",hemolytic anemia; [5],neg.
same,"IgG, Baseline",hemolytic anemia; [5],674
same,"IgM, Baseline",hemolytic anemia; [5],146
same,toxicity (printed in the thymus weight column),thymus gland; 200 mg/kg,toxic
[O-]c1c(-c2ccc(Cl)cc2)sc2sc3ccc(Cl)cc3[n+]12 [B],"IgG, mean (total number of plaques per spleen)",[1]; Day 4,"9,656 plaques per spleen"
same,"IgM, mean (total number of plaques per spleen)",[1]; Day 4,"74,025 plaques per spleen"
same,"IgG, mean (total number of plaques per spleen)",[1]; Day 5,"49,218 plaques per spleen"
same,"IgM, mean (total number of plaques per spleen)",[1]; Day 5,"50,250 plaques per spleen"
same,"ANA (antinuclear antibody), 1st Reading",hemolytic anemia,neg.
same,"IgG, 1st Reading",hemolytic anemia,304
same,"IgM, 1st Reading",hemolytic anemia,120
same,"IgG, % Change",hemolytic anemia,-60%
same,"IgM, % Change",hemolytic anemia,-32%
same,"IgG, Baseline",hemolytic anemia; [5],760
same,"IgM, Baseline",hemolytic anemia; [5],176
same,% Change in weight (thymus gland),thymus gland; 200 mg/kg,-53%
same,Avg. weight of thymus gland,thymus gland; 200 mg/kg,18.6 mg
[O-]c1c(-c2ccccc2)sc2sc3ccc(Cl)cc3[n+]12 [C],"IgG, mean (total number of plaques per spleen)",[1]; Day 4,"22,875 plaques per spleen"
same,"IgM, mean (total number of plaques per spleen)",[1]; Day 4,"110,643 plaques per spleen"
same,"IgG, mean (total number of plaques per spleen)",[1]; Day 5,"117,337 plaques per spleen"
same,"IgM, mean (total number of plaques per spleen)",[1]; Day 5,"55,518 plaques per spleen"
"O=P1(N(CCCl)CCCl)NCCCO1 (stereo not drawn) [Cyclophosphamide, cyclophosphamide, reference compound]",Mean % Inhibition of Paw Edema,[2]; 6 hours after challenge,58%
same,Mean % Inhibition of Paw Edema,[2]; 24 hours before challenge,56%
O=C(c1sc2sc3ccc(Cl)cc3[n+]2c1[O-])C(F)(F)F [D],"IgG, 1st Reading",hemolytic anemia,770
same,"IgM, 1st Reading",hemolytic anemia,190
same,"IgG, % Change",hemolytic anemia,+8%
same,"IgM, % Change",hemolytic anemia,+4%
same,"IgG, Baseline",hemolytic anemia; [5],710
same,"IgM, Baseline",hemolytic anemia; [5],182
same,% Change in weight (thymus gland),thymus gland; 200 mg/kg,-28%
same,Avg. weight of thymus gland,thymus gland; 200 mg/kg,28.4 mg
Oc1c(-c2ccccc2)sc2sc3ccc(Cl)cc3[n+]12 [E],% Change in weight (thymus gland),thymus gland; 75 mg/kg,-56%
same,Avg. weight of thymus gland,thymus gland; 75 mg/kg,17.5 mg
"[O-]c1c(-c2ccccc2)sc2sc3c([n+]12)CCCC3 [Example 11, 2-Phenyl-5,6,7,8-tetrahydrothiazolo[2,3-b]-benzothiazol-3(2H)-one mesoionic dedihydro derivative]","ANA (antinuclear antibody), 1st Reading",hemolytic anemia,neg.
same,"IgG, 1st Reading",hemolytic anemia,356
same,"IgM, 1st Reading",hemolytic anemia,134
same,"IgG, % Change",hemolytic anemia,-50%
same,"IgM, % Change",hemolytic anemia,-31%
same,"IgG, Baseline",hemolytic anemia; [5],710
same,"IgM, Baseline",hemolytic anemia; [5],194
same,% Change in weight (thymus gland),thymus gland; 200 mg/kg,-58%
same,Avg. weight of thymus gland,thymus gland; 200 mg/kg,16.8 mg
CCOc1ccc2c(c1)sc1sc(-c3ccccc3)c(O)[n+]12 [F],% Change in weight (thymus gland),thymus gland; 150 mg/kg,-16%
same,Avg. weight of thymus gland,thymus gland; 150 mg/kg,33.3 mg
Oc1c(-c2ccccc2)sc2sc3ccccc3[n+]12 [G],% Change in weight (thymus gland),thymus gland; 75 mg/kg,-29%
same,Avg. weight of thymus gland,thymus gland; 75 mg/kg,28.0 mg
Oc1c(-c2ccccc2)sc2sc3c([n+]12)CCCC3 [H],% Change in weight (thymus gland),thymus gland; 75 mg/kg,+2%
same,Avg. weight of thymus gland,thymus gland; 75 mg/kg,40.5 mg
"c1ccc([C@H]2CN3CCSC3=N2)cc1 [Levamisole, L-(-)-2,3,5,6-tetrahydro-6-phenylimidazo[2,1-b]thiazole, reference compound]",IgG level,[3]; 47 Days,560 mg./100 ml.
same,IgM level,[3]; 47 Days,68 mg./100 ml.
same,IgG level,[3]; 76 Days,710 mg./100 ml.
same,IgM level,[3]; 76 Days,140 mg./100 ml.
same,IgG level,[3]; 111 Days,710 mg./100 ml.
same,IgM level,[3]; 111 Days,128 mg./100 ml.
same,IgG level,[3]; 154 Days,910 mg./100 ml.
same,IgM level,[3]; 154 Days,142 mg./100 ml.
same,IgG Total Change From Baseline,[3],+460 mg./100 ml.
same,IgM Total Change From Baseline,[3],+98.5 mg./100 ml.
same,IgG level,[3]; Pretreatment,450 mg./100 ml.
same,IgM level,[3]; Pretreatment,43.5 mg./100 ml.
same,IgG level,[4]; 47 Days,404 mg./100 ml.
same,IgM level,[4]; 47 Days,49 mg./100 ml.
same,IgG level,[4]; 76 Days,490 mg./100 ml.
same,IgM level,[4]; 76 Days,83 mg./100 ml.
same,IgG level,[4]; 111 Days,980 mg./100 ml.
same,IgM level,[4]; 111 Days,136 mg./100 ml.
same,IgG level,[4]; 154 Days,900 mg./100 ml.
same,IgM level,[4]; 154 Days,154 mg./100 ml.
same,IgG Total Change From Baseline,[4],+440 mg./100 ml.
same,IgM Total Change From Baseline,[4],+90 mg./100 ml.
same,IgG level,[4]; Pretreatment,460 mg./100 ml.
same,IgM level,[4]; Pretreatment,64 mg./100 ml.

# Reference: US4275065A, “Modulating the immune response with 2-substituted-3-hydroxythiazolo[2,3-b]b e” (American Home Products Corporation, priority 1980, dated 1981)
